pIC50: −log10 of the molar value.

In one assay the target is T1, PD-1/PD-L1 interaction (PD-1-Ig / PD-L1-His) (Homo sapiens, UniProt Q9NZQ7).
T1 construct: hPDL1(18-239)-TVMV-His; TVMV protease site linker (C); made in house; host or cells: HEK293T
T1 sequence (Q9NZQ7 with tags, fused parts or gaps): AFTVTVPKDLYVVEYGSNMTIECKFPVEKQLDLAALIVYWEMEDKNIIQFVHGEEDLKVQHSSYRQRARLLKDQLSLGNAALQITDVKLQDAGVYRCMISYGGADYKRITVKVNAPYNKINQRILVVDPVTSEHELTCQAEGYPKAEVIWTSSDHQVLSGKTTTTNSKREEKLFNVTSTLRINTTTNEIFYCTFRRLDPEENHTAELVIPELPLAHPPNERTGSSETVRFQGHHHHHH
Nature of the assay: PD-1/PD-L1 Homogenous Time-Resolved Fluorescence (HTRF) binding assay. The conditions noted are these: IC50 range class; PD-L1-His 10 nM, PD-1-Ig 20 nM; read-out: Range or IC50. The procedure, abridged: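 HTRF detection used 1 nM europium-cryptate anti-Ig and 20 nM APC anti-His. Compounds first saw 10 nM PD-L1-His for 15 min, and 20 nM PD-1-Ig was then added for another 15 min. Buffer was dPBS plus 0.1% BSA and 0.05% Tween-20. All concentrations are final.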
Background: Time-resolved FRET reads energy transfer from a long-lived donor to a nearby acceptor.
Regarding `Cc1c(OCCCN(CCO)Cc2ccccc2)cccc1-c1cccc(OCCCN2CC[C@@H](O)C2)c1C` [Example 2072, (R)-1-(3-((3′-(3-(benzyl(2-hydroxyethyl)amino)propoxy)-2,2′-dimethyl-[1,1′-biphenyl]-3-yl)oxy)propyl)pyrrolidin-3-ol], the negative logarithm of the IC50 (pIC50) was 6.00 to 7.05. As to `Cc1c(OCCCN(CCO)CCC(C)C)cccc1-c1cccc(OCCCN2CC[C@@H](O)C2)c1C` [Example 2073, (R)-1-(3-((3′-(3-((2-hydroxyethyl)(isopentyl)amino)propoxy)-2,2′-dimethyl-[1,1′-biphenyl]-3-yl)oxy)propyl)pyrrolidin-3-ol], the pIC50 is 7.05 to 7.70. On to `Cc1c(OCCCN2CC[C@@H](O)C2)cccc1-c1cccc(OCCCN2CCC[C@@H](C(=O)O)C2)c1C` [Example 2074, (R)-1-(3-((3′-(3-((R)-3-hydroxypyrrolidin-1-yl)propoxy)-2,2′-dimethyl-[1,1′-biphenyl]-3-yl)oxy)propyl)piperidine-3-carboxylic acid], for which the negative-log IC50 (pIC50) is 6.00 to 7.05. With `Cc1c(OCCCNC[C@@H](O)c2ccc(F)c(Cl)c2)cccc1-c1cccc(OCCCN2CC[C@@H](O)C2)c1C` [Example 2075, (R)-1-(3-((3′-(3-(((S)-2-(3-chloro-4-fluorophenyl)-2-hydroxyethyl)amino)propoxy)-2,2′-dimethyl-[1,1′-biphenyl]-3-yl)oxy)propyl)pyrrolidin-3-ol], the negative logarithm of the IC50 (pIC50) was 7.05 to 7.70. The same measure, in the same setting: in the case of `Cc1c(OCCCN(C)CCC(N)=O)cccc1-c1cccc(OCCCN(C)CCC(N)=O)c1C` [Example 2076] it was 7.05 to 7.70; in that of `Cc1c(OCCCN(CCO)CCO)cccc1-c1cccc(OCCCN(CCO)CCO)c1C` [Example 2077, 2,2′,2″,2′″-((((2,2′-dimethyl-[1,1′-biphenyl]-3,3′-diyl)bis(oxy))bis(propane-3,1-diyl))bis(azanetriyl))tetrakis(ethan-1-ol)], 7.05 to 7.70. On the same count and under the same terms, the value for `Cc1c(OCCCNC[C@H](O)CO)cccc1-c1cccc(OCCCNC[C@H](O)CO)c1C` [Example 2079, (2S,2′S)-3,3′-((((2,2′-dimethyl-[1,1′-biphenyl]-3,3′-diyl)bis(oxy))bis(propane-3,1-diyl))bis(azanediyl))bis(propane-1,2-diol)] was 7.70 to 10.40; that for `Cc1c(OCCCNCCCO)cccc1-c1cccc(OCCCNC[C@H](O)CO)c1C` [Example 2080, (S)-3-((3-((3′-(3-((3-hydroxypropyl)amino)propoxy)-2,2′-dimethyl-[1,1′-biphenyl]-3-yl)oxy)propyl)amino)propane-1,2-diol] was 7.70 to 10.40. The same measure, in the same setting: the value for `Cc1c(OCCCNC[C@H](O)CO)cccc1-c1cccc(OCCCN2CCC[C@H](C(=O)O)C2)c1C` [Example 2081, (S)-1-(3-((3′-(3-(((S)-2,3-dihydroxypropyl)amino)propoxy)-2,2′-dimethyl-[1,1′-biphenyl]-3-yl)oxy)propyl)piperidine-3-carboxylic acid] was 7.05 to 7.70; that for `Cc1c(OCCCN2CCC[C@H](C(=O)O)C2)cccc1-c1cccc(OCCCN2CCC[C@H](C(=O)O)C2)c1C` [Example 2082, (3S,3′S)-1,1′-(((2,2′-dimethyl-[1,1′-biphenyl]-3,3′-diyl)bis(oxy))bis(propane-3,1-diyl))bis(piperidine-3-carboxylic acid)] was 6.00 to 7.05. As for `Cc1c(OCCCN2CC[C@H](O)[C@@H](O)C2)cccc1-c1cccc(OCCCN2CC[C@H](O)[C@@H](O)C2)c1C` [Example 2084, (3S,3′S,4S,4′S)-1,1′-(((2,2′-dimethyl-[1,1′-biphenyl]-3,3′-diyl)bis(oxy))bis(propane-3,1-diyl))bis(piperidine-3,4-diol)], the pIC50 was 7.05 to 7.70.

In the case of `Cc1c(OCCCN2CCN(CCO)CC2)cccc1-c1cccc(OCCCN2CCN(CCO)CC2)c1C` [Example 2085, 2,2′-((((2,2′-dimethyl-[1,1′-biphenyl]-3,3′-diyl)bis(oxy))bis(propane-3,1-diyl))bis(piperazine-4,1-diyl))bis(ethan-1-ol)], the pIC50 is 6.00 to 7.05. On to `Cc1c(OCCCNCCc2cccnc2)cccc1-c1cccc(OCCCNCCc2cccnc2)c1C` [Example 2086, 3,3′-((2,2′-dimethyl-[1,1′-biphenyl]-3,3′-diyl)bis(oxy))bis(N-(2-(pyridin-3-yl)ethyl)propan-1-amine)], for which the pIC50 was 7.70 to 10.40. Same read-out and setting: the value for `Cc1c(OCCCN2CC(N(C)C)C2)cccc1-c1cccc(OCCCN2CC(N(C)C)C2)c1C` [Example 2087, 1,1′-(((2,2′-dimethyl-[1,1′-biphenyl]-3,3′-diyl)bis(oxy))bis(propane-3,1-diyl))bis(N,N-dimethylazetidin-3-amine)] was 6.00 to 7.05; that for `Cc1c(OCCCN[C@@H]2C[C@H](CO)[C@@H](O)[C@H]2O)cccc1-c1cccc(OCCCN[C@@H]2C[C@H](CO)[C@@H](O)[C@H]2O)c1C` [Example 2088, (1S,1′S,2R,2′R,3R,3′R,5R,5′R)-5,5′-((((2,2′-dimethyl-[1,1′-biphenyl]-3,3′-diyl)bis(oxy))bis(propane-3,1-diyl))bis(azanediyl))bis(3-(hydroxymethyl)cyclopentane-1,2-diol)] was 7.70 to 10.40. Turning to `Cc1c(OCCCN(C)C2CC(O)C2)cccc1-c1cccc(OCCCN(C)C2CC(O)C2)c1C` (stereo not drawn) [Example 2090, 3,3′-((((2,2′-dimethyl-[1,1′-biphenyl]-3,3′-diyl)bis(oxy))bis(propane-3,1-diyl))bis(methylazanediyl))bis(cyclobutan-1-ol)], the pIC50 is 7.05 to 7.70.

As for `Cc1c(OCCCN[C@@H](c2ccccc2)[C@H](O)CO)cccc1-c1cccc(OCCCN2CC[C@@H](O)C2)c1C` [Example 2091, (2S,3S)-3-((3-((3′-(3-((R)-3-hydroxypyrrolidin-1-yl)propoxy)-2,2′-dimethyl-[1,1′-biphenyl]-3-yl)oxy)propyl)amino)-3-phenylpropane-1,2-diol], the negative-log IC50 (pIC50) was 7.05 to 7.70.

Consider `Cc1c(OCCCN2CC[C@@H](O)C2)cccc1-c1cccc(OCCCN2CCO[C@@H](CO)C2)c1C` [Example 2092, (R)-1-(3-((3′-(3-((R)-2-(hydroxymethyl)morpholino)propoxy)-2,2′-dimethyl-[1,1′-biphenyl]-3-yl)oxy)propyl)pyrrolidin-3-ol], for which the pIC50 was 7.05 to 7.70. Still for that read-out and setting: in the case of `Cc1c(OCCCN(C)CCCN(C)CCCOc2cccc(-c3cccc(OCCCN4CC[C@@H](O)C4)c3C)c2C)cccc1-c1cccc(OCCCN2CC[C@@H](O)C2)c1C` [Example 2093, (3R,3′R)-1,1′-((((((propane-1,3-diylbis(methylazanediyl))bis(propane-3,1-diyl))bis(oxy))bis(2,2′-dimethyl-[1,1′-biphenyl]-3′,3-diyl))bis(oxy))bis(propane-3,1-diyl))bis(pyrrolidin-3-ol)] it was 7.05 to 7.70; in that of `COCC(O)CNCCCOc1cccc(-c2cccc(OCCCNCC(O)COC)c2C)c1C` (stereo not drawn) [Example 2094, 3,3′-((((2,2′-dimethyl-[1,1′-biphenyl]-3,3′-diyl)bis(oxy))bis(propane-3,1-diyl))bis(azanediyl))bis(1-methoxypropan-2-ol)], 7.70 to 10.40; in that of `Cc1c(OCCCN(C)CCOCCN(C)CCCOc2cccc(-c3cccc(OCCCN4CC[C@@H](O)C4)c3C)c2C)cccc1-c1cccc(OCCCN2CC[C@@H](O)C2)c1C` [Example 2095, (3R,3′R)-1,1′-(((((((oxybis(ethane-2,1-diyl))bis(methylazanediyl))bis(propane-3,1-diyl))bis(oxy))bis(2,2′-dimethyl-[1,1′-biphenyl]-3′,3-diyl))bis(oxy))bis(propane-3,1-diyl))bis(pyrrolidin-3-ol)], 7.05 to 7.70. With `CNCCOCCN(C)CCCOc1cccc(-c2cccc(OCCCN3CC[C@@H](O)C3)c2C)c1C` [Example 2096, (R)-1-(3-((2,2′-dimethyl-3′-(3-(methyl(2-(2-(methylamino)ethoxy)ethyl)amino)propoxy)-[1,1′-biphenyl]-3-yl)oxy)propyl)pyrrolidin-3-ol], the negative logarithm of the IC50 (pIC50) is 7.05 to 7.70.

For `Cc1c(OCCCN[C@H](CO)[C@H](O)c2ccccc2)cccc1-c1cccc(OCCCN[C@H](CO)[C@H](O)c2ccccc2)c1C` [Example 2097], the pIC50 was 6.00 to 7.05. Same read-out and setting: in the case of `Cc1c(OCCCNC[C@H](O)CO)cccc1-c1cccc(OCCCN[C@H](CO)[C@H](O)c2ccccc2)c1C` [Example 2098, (S)-3-((3-((3′-(3-(((1R,2R)-1,3-dihydroxy-1-phenylpropan-2-yl)amino)propoxy)-2,2′-dimethyl-[1,1′-biphenyl]-3-yl)oxy)propyl)amino)propane-1,2-diol] it was 7.70 to 10.40. Regarding `Cc1c(OCCCN(CC#N)C[C@H](O)CO)cccc1-c1cccc(OCCCN(CC#N)C[C@H](O)CO)c1C` [Example 2100, 2,2′-((((2,2′-dimethyl-[1,1′-biphenyl]-3,3′-diyl)bis(oxy))bis(propane-3,1-diyl))bis(((S)-2,3-dihydroxypropyl)azanediyl))diacetonitrile], the negative-log IC50 (pIC50) is 7.05 to 7.70.

Staying with this assay, now noted: numeric IC50; PD-L1-His 10 nM, PD-1-Ig 20 nM; read-out: Range or IC50.
`Cc1c(OCCCNCCc2ccncc2)cccc1-c1cccc(OCCCN[C@@H]2C[C@H](CO)[C@@H](O)[C@H]2O)c1C` [Example 2089, (1R,2S,3R,5R)-3-((3-((2,2′-dimethyl-3′-(3-((2-(pyridin-4-yl)ethyl)amino)propoxy)-[1,1′-biphenyl]-3-yl)oxy)propyl)amino)-5-(hydroxymethyl)cyclopentane-1,2-diol]: the pIC50 is 8.15. The same measure, in the same setting: the value for `Cc1c(OCCCN(Cc2cncc(C#N)c2)C[C@H](O)CO)cccc1-c1cccc(OCCCN(Cc2cncc(C#N)c2)C[C@H](O)CO)c1C` [Example 2099, 5,5′-(((((2,2′-dimethyl-[1,1′-biphenyl]-3,3′-diyl)bis(oxy))bis(propane-3,1-diyl))bis(((S)-2,3-dihydroxypropyl)azanediyl))bis(methylene))dinicotinonitrile] was 5.90.

What is called pIC50 is −log10 of the IC50, conventionally taken in molar units.

The record behind these values is patent US10144706B2 (BRISTOL-MYERS SQUIBB COMPANY, priority 2016, dated 2018).
